Data from US7906656B2, “Iodopyrazolyl carboxanilides” (Bayer CropScience AG, priority 2003, dated 2011).

experiment: log P determination by HPLC on reversed-phase column (EEC directive 79/831 Annex V.A8); format: physicochemical; conditions: pH 2.3; HPLC reversed-phase C18, 43° C.
Description: The given log P values were determined in accordance with EEC directive 79/831 Annex V.A8 by HPLC (High Performance Liquid Chromatography) on a reversed-phase column (C18). Temperature: 43° C. Mobile phases for the determination in the acidic range (pH 2.3): 0.1% aqueous phosphoric acid, acetonitrile; linear gradient from 10% acetonitrile to 90% acetonitrile. Calibration was carried out using unbranched alkan-2-ones (having 3 to 16 carbon atoms) with known log P values (determination of the log P values by the retention times using linear interpolation between two successive alkanones).

In order of rising logP:
1. C=C(C)CC(C)(O)c1ccccc1NC(=O)c1cn(C)nc1I (centres unmarked) [Compound 13]  2.54
2. Cn1cc(C(=O)Nc2ccccc2-c2cccc(Cl)c2F)c(I)n1 [Compound 17]  2.99
3. Cn1cc(C(=O)Nc2ccccc2-c2ccc(Cl)cc2)c(I)n1 [Compound 14]  3.08
4. CC(CC1CC1)c1ccccc1NC(=O)c1cn(C)nc1I (centres unmarked) [Compound 15]  3.08
5. Cn1cc(C(=O)Nc2ccccc2-c2ccc(Cl)c(F)c2)c(I)n1 [Compound 3]  3.09
6. Cn1cc(C(=O)Nc2ccccc2-c2ccc(F)c(Cl)c2)c(I)n1 [Compound 8]  3.09
7. CC(C)CCc1ccccc1NC(=O)c1cn(C)nc1I [Compound 24]  3.15
8. Cc1ccc(-c2ccccc2NC(=O)c2cn(C)nc2I)cc1F [Compound 7]  3.18
9. Cn1cc(C(=O)Nc2ccccc2-c2ccc(Br)cc2)c(I)n1 [Compound 9]  3.20
10. Cn1cc(C(=O)Nc2ccccc2-c2ccc(C(F)(F)F)c(F)c2)c(I)n1 [Compound 11]  3.23
11. Cn1cc(C(=O)Nc2ccccc2-c2ccc(C(F)(F)F)cc2)c(I)n1 [Compound 10]  3.24
12. CC1CC(C)(C)c2cccc(NC(=O)c3cn(C)nc3I)c21 (centres unmarked) [Compound 19]  3.27
13. C=C(c1ccccc1NC(=O)c1cn(C)nc1I)C(C)C [Compound 25]  3.28
14. Cn1cc(C(=O)Nc2ccccc2CCC(C)(C)C)c(I)n1 [Compound 18]  3.34
15. Cn1cc(C(=O)Nc2ccccc2-c2cccc(Cl)c2Cl)c(I)n1 [Compound 28]  3.34
16. CC(C)CC(C)c1ccccc1NC(=O)c1cn(C)nc1I (centres unmarked) [Compound 4]  3.36
17. Cn1cc(C(=O)Nc2ccccc2-c2ccc(I)cc2)c(I)n1 [Compound 16]  3.36
18. Cn1cc(C(=O)Nc2ccccc2-c2ccc(Cl)c(Cl)c2)c(I)n1 [Compound 2]  3.38
19. CC(C)CC(C)c1cc(F)ccc1NC(=O)c1cn(C)nc1I (centres unmarked) [Compound 20]  3.39
20. CC(C)=C(C)c1ccccc1NC(=O)c1cn(C)nc1I [Compound 27]  3.40
21. Cn1cc(C(=O)Nc2ccccc2-c2ccc(Br)c(Cl)c2)c(I)n1 [Compound 31]  3.45
22. Cn1cc(C(=O)Nc2ccccc2-c2ccc(C(F)(F)F)cc2Cl)c(I)n1 [Compound 30]  3.55
23. Cn1cc(C(=O)Nc2ccccc2-c2ccc(Br)cc2Cl)c(I)n1 [Compound 32]  3.56
24. CC(=CC(C)C)c1ccccc1NC(=O)c1cn(C)nc1I [Compound 12]  3.62
25. CC(CC(C)(C)C)c1ccccc1NC(=O)c1cn(C)nc1I (centres unmarked) [Compound 1]  3.64
26. CC(=O)N(C(=O)c1cn(C)nc1I)c1ccccc1C(C)CC(C)C (centres unmarked) [Compound 21]  3.68
27. CON=C(c1ccc(-c2ccccc2NC(=O)c2cn(C)nc2I)cc1)C(F)(F)F [Compound 23]  3.70
28. Cn1cc(C(=O)Nc2ccccc2C#CC(C)(C)C)c(I)n1 [Compound 22]  3.79
29. C=C(CC(C)(C)C)c1ccccc1NC(=O)c1cn(C)nc1I [Compound 26]  3.82
30. CCCON=Cc1ccc(-c2ccccc2NC(=O)c2cn(C)nc2I)cc1F [Compound 5]  4.00

same assay, conditions: reversed-phase C18 HPLC column; pH 2.3; HPLC reversed-phase C18, 43° C.

In order of falling chromatographic logP:
1. Cn1cc(C(=O)Nc2ccc(F)cc2-c2ccc(Cl)c(Cl)c2)c(I)n1 [Compound 6, N-(3′,4′-dichloro-5-fluoro-1,1′-biphenyl-2-yl)-3-iodo-1-methyl-1H-pyrazole-4-carboxamide]  3.42
2. CCOC(=O)/C(C#N)=C\N(C)/N=C/c1ccccc1 [ethyl 3-(N′-benzylidene-N-methylhydrazino)-2-cyanoacrylate]  2.31
3. CCOC(=O)c1cn(C)nc1I [ethyl 3-iodo-1-methyl-1H-pyrazole-4-carboxylate]  1.74
4. CCOC(=O)c1cn(C)nc1N [ethyl 3-amino-1-methyl-1H-pyrazole-4-carboxylate]  0.72
5. Cn1cc(C(=O)O)c(I)n1 [3-iodo-1-methyl-1H-pyrazole-4-carboxylic acid]  0.57
